Test results published in article PMC3056768, “Conjugation to the Cell-Penetrating Peptide TAT Potentiates the Photodynamic Effect of Carboxytetramethylrhodamine” (PLoS ONE, 2011).
Entries after “also recorded” stand apart in the source; their conditions may differ.

What was measured:
HeLa cells [1] = assay: Photosensitization of extracellular peptide at 4°C (endocytosis blocked); assay type: cell-based, human; settings: 3 µM, 4°C to block endocytosis, irradiated at 560 nm with compound still in the media
Procedure: (§1) HeLa (human cervical adenocarcinoma), COS-7 (SV40 transformed African green monkey kidney fibroblast-like cell line) were obtained from ATCC. COLO 316 (human ovarian carcinoma) were obtained from Robert Burghardt (Department of Veterinary Integrative Biosciences, Texas A&M University). Cells were cultured in DMEM supplemented with 10% fetal bovine serum (FBS) and maintained at 37°C in a humidified environment with 5% CO2. Cells were plated in 8-well dishes so that the cells were 70% confluent after 24 h, washed 3 times with L-15 media, incubated with 3 to 10 µM peptides at 37°C for 1 h, washed 3 times with L-15, and imaged. Alternatively, cells were incubated in L-15 at 4°C to inhibit the endocytic uptake of peptides. In this case, cells were imaged with the peptide still present in solution and the low temperature was maintained for the entire duration of imaging. For photosensitization, cells were exposed to light (λex = 560±20 nm) for the indicated time points. Plasma membrane disruption was detected by addition of the cell-impermeable DNA stain SYTOX Blue (5 µM) during or after photosensitization.
It is therefore possible that the endosomal release observed in the experiments of Figure 1 might be necessary to cause cell death. To investigate whether this is the case, we examined if light-induced cell-death could be observed when the peptides were only localized at the plasma membrane of cells. For these experiments, HeLa cells were first incubated with the peptides (3 µM) at 4°C to block endocytosis. Cells were then irradiated with the peptides still present in the media (the peptide is not retained at the plasma membrane when cells are washed). […] Cells were then washed and observed by fluorescence imaging. […] On the other hand, the membrane damage and cell death obtained after TMR-TAT photosensitization were also observed when hematoporphyrin (HP) or hematoporphyrin derivative (HPD) were used (Fig. 4B). […]

red blood cells (RBCs) = settings: for effect of hydrophilic 1O2 scavenger on photohemolysis by TMR-TAT or TMR-riTAT: scavenger up to 50 mM, TMR-TAT or TMR-riTAT 3 µM
Procedure: Whole blood was purchased from Gulf Coast Regional Blood Center (Houston, TX). Erythrocytes were centrifuged for 5 min at 1500 g and the erythrocyte pellet was resuspended with PBS. This was repeated three times to remove plasma and buffy coat. The erythrocytes (50% volume in PBS) were diluted in PBS to a final concentration of 0.25%. Indicated concentration of peptide was added to the medium and the samples were added to the wells of an 8-well chamber glass slide (Nunc). Cells were typically allowed to settle to the bottom of the dish for 5 minutes prior to imaging so as to obtain a layer of cells in the focal plane.
Cells were placed on an inverted epifluorescence microscope (Model IX81, Olympus, Center Valley, PA) equipped with a heating stage maintained at 37°C. The microscope is configured with a spinning disk unit to perform both confocal and wide-field fluorescence microscopy. Images were collected using a Rolera-MGI Plus back-illuminated EMCCD camera (Qimaging, Surrey, BC, Canada). Images were acquired using bright field imaging and two standard fluorescence filter sets: Texas Red (Ex = 560±20 nm/Em = 630±35 nm), and CFP (Ex = 436±10 nm/Em = 480±20 nm). The excitation light was from a 100 W halogen lamp (Olympus USH 1030C) passed through the filter cubes and 40 or 100× objective lenses. Neutral density filters (ND 1, 2, 3, or 4 on the instrument, corresponding to 100, 25, 12.5, or 5% transmittance) and different exposure times were used to modulate the amount of light samples were exposed to. The bright field and fluorescence intensities of cells and ghosts were measured using the SlideBook 4.2 software (Olympus, Center Valley, PA). To determine the percentage of cells stained by SYTOX® Blue, cells were imaged with a 20× objective by phase contrast. Ten to twenty images were acquired for each experiment. The total number of cells in a given image was determined from the phase contrast image while the number of dead cells was determined by identifying cells containing a blue fluorescent nucleus stained by SYTOX® Blue. Cell viability was determined by establishing a ratio of dead cells/total number of cells for each sample (at least 1000 cells were counted in each experiments and each experiments were repeated 3 times).
TMR and TMR containing peptides were used at 2 µM. All experiments were performed by irradiating the samples at 560 nm for 400 msec (∼8 J/cm^2). The data in the histogram represents the average of 4 experiments and the error bars correspond to the standard deviation.

HeLa cells [2] = assay: Photocytotoxicity of endocytosed peptide after light irradiation (SYTOX Blue staining, membrane blebbing); assay type: cell-based; settings: for photocytotoxicity / cell death after irradiation at 560 nm: incubation 1 h 37°C (3 µM; TMR-K9 10 µM), irradiated at 560±20 nm
Procedure: as §1
(§2) Ten to twenty images were acquired for each experiment.
Irradiances at the specimen were 100 mW/cm^2 when no neutral density filter and no objective were present in the light path (and, for instance 5 mW/cm^2 when ND4 was inserted). Irradiances were measured using a monochromic photometer (model 840-c, Newport, Irvine, CA). Irradiation area has a diameter of 1.3 cm without objective but the light beam is focused into an area of 3×10^−3 cm^2 by the 100× objective. Irradiances can therefore be approximated to be at […] with ND4 or ND1, respectively. Irradiances provided in the figure legends are based on these calculations. To confirm that the irradiances measured on the microscope were accurate, experiments were also reproduced, when possible, using light illumination with a collimated light source from Oriel (Stratford, CT) equipped with a 500 W Hg lamp. Selective irradiation at 560 nm was performed using an analytical line filter (Oriel, 9.4 nm bandwidth). In this case, irradiances of the light beam (diameter of 2.5 cm) could be measured more precisely using the monochromic photometer.

[3] = cited from earlier work
From the text: Upon light irradiation TMR-TAT rapidly and efficiently disrupts the membrane of endosomes. However, in our hands, this activity is also accompanied by the simultaneous destruction of cells. The peptide therefore played the role of a photosensitizer, a molecule able to kill cells upon light irradiation. While multiple cellular events might take place during the photosensitization of the compound, the damage to cellular membranes other than that of endosomes appears to lead to this photocytotoxic effect. The peptide was for instance able to lyse the plasma membrane of HeLa cells as well as the m ...

HeLa cells [4] = assay: Photo-induced endosomal release (fluorescence imaging); assay type: cell-based, human; settings: washed
Procedure: as §1, §2
The effect of light irradiation on cells that have endocytosed TMR-TAT was first investigated. HeLa cells were incubated in the presence of TMR-TAT (3 µM) for 1 hour at 37°C. After washing the cells, the sample was placed on a microscope and the cellular distribution of the peptide was assessed by fluorescence imaging. […] Within seconds, the content of many endosomes was released into the cell and the peptides were distributed throughout the cell. The peptide also accumulated at the nucleoli, a known effect of TAT [7]. […] The viability of non-irradiated cells was, in contrast, not affected by TMR-TAT (Fig. 2B); we found the cytotoxicity of the peptide to be negligible in the absence of light at concentrations up to 25 µM (supporting information Fig. S1).

HeLa cells [5] = assay: Endocytic uptake (fluorescence of endocytic organelles); assay type: cell-based, human
Procedure: as §1
Supplementary file pone.0017732.s003.tif: Figure S3 Comparison of the fluorescence intensity of endosomes containing TMR-TAT (incubation at 3 µM) or TMR-K9 (incubation at 10 µM) in the images presented in Figure 1. Imaging was performed in both cases under identical conditions. The fluorescence intensities of all endocytic organelles was measured the Slidebook software. […] (TIF) Click here for additional data file.

5(6)-carboxytetramethylrhodamine [TMR, reference compound]
light-induced cell death with peptide only extracellular (HeLa cells [1]): did not die | photohemolysis (lytic effect on RBCs upon light exposure) (red blood cells (RBCs); RBCs 0.25% in PBS, irradiation at 560 nm): no lytic effect | photocytotoxicity / cell death after irradiation at 560 nm (HeLa cells [2]; washed): did not cause cell death; also recorded: essentially non-cytotoxic

CC1=C(CCC(=O)O)c2cc3[nH]c(cc4nc(cc5[nH]c(cc1n2)c(C)c5C(C)O)C(C)=C4C(C)O)c(C)c3CCC(=O)O (stereo not shown) [HP, hematoporphyrin]
singlet oxygen quantum yield [3]: approximately 0.5 | membrane damage and cell death after photosensitization (HeLa cells [2]; incubated 1 hour, washed with L-15, irradiated at 560 nm): also observed

N[C@@H](Cc1c[nH]cn1)C(=O)O [L-histidine, reference compound]
effect of hydrophilic 1O2 scavenger on photohemolysis by TMR-TAT or TMR-riTAT (red blood cells (RBCs)): no detectable decrease

CC(/C=C/C=C(\C)C(=O)O)=C\C=C\C=C(C)\C=C\C=C(/C)C(=O)O [crocetin, reference compound]
effect of quencher on photohemolysis (red blood cells (RBCs); crocetin 50 µM): dramatic reduction | cell death by irradiated TMR-TAT in the presence of quencher (HeLa cells [2]; TMR-TAT 3 µM with crocetin 50 µM for 1 hour, washed, 560 nm): cell-death was not observed; also recorded: not accompanied by membrane blebbing or SYTOX® Blue staining | endosomal release of TMR-TAT in the presence of quencher (HeLa cells [4]; TMR-TAT 3 µM with crocetin 50 µM for 1 hour, 560 nm): lesser extent; also recorded: reduced by crocetin but not abolished

[N-]=[N+]=[N-].[Na+] [sodium azide, reference compound]
effect of hydrophilic 1O2 scavenger on photohemolysis by TMR-TAT or TMR-riTAT (red blood cells (RBCs)): no detectable decrease

CC(=O)Oc1c(C)c(C)c2c(c1C)CCC(C)(CCC[C@H](C)CCC[C@H](C)CCCC(C)C)O2 (stereo partly drawn) [α-tocopherol acetate]
onset of photosensitization of TMR-TAT in the presence of quencher (HeLa cells [2]; α-tocopherol acetate prior to TMR-TAT incubation and during irradiation): delayed | photo-induced endosomal release and cell death by TMR-TAT in the presence of quencher (HeLa cells [2]; α-tocopherol acetate prior to TMR-TAT incubation and during irradiation, data not shown): still observed

GRKKRRQRRR [TAT, prototypical cell-penetrating peptide TAT, unlabeled]
photocytotoxicity / cell death after irradiation at 560 nm (HeLa cells [2]; washed): did not die

TMR-KKKKKKKKK-NH2 [TMR-K9, 9 positively charged lysine residues labeled with TMR; serves as a control]
light-induced cell death with peptide only extracellular (HeLa cells [1]): did not die | endocytic uptake by cells (HeLa cells [5]; 1 h at 37°C, washed, fluorescence imaging (TMR-TAT 3 µM; TMR-K9 higher concentration)): endocytosed by cells | amount present in endocytic organelles (fluorescence intensity) compared with TMR-TAT (HeLa cells [5]; TMR-K9 incubation at 10 µM vs TMR-TAT at 3 µM, identical imaging): equal or greater that that of TMR-TAT | fold less efficient than TMR-TAT and TMR-riTAT in causing photohemolysis (red blood cells (RBCs); RBCs 0.25% in PBS, 2 µM, 560 nm for 400 msec (~8 J/cm^2), average of 4 experiments): 5 fold | photocytotoxicity / cell death after irradiation at 560 nm (HeLa cells [2]; washed): remain viable; also recorded: no photocytoxicity; also recorded: essentially non-cytotoxic | photo-induced endosomal release (photoendosomolytic activity) at 560 nm (HeLa cells [4]; incubation 1 h 37°C (3 µM; TMR-K9 10 µM), irradiated at 560±20 nm): not affected
